Reference: ChEMBL document CHEMBL1201862, “PubChem BioAssay data set” (2004)
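Each compound was tested at five concentrations against cells in 96-well plates for 48 hours. Here, GI50 denotes the concentration required for 50% inhibition of growth.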 Calls of active or inactive are those of the source. No stated cut-off is given here; in the data, active = GI50 up to about 1.1 µM and inactive = higher.

Experiments:
Assay in all cases: inhibition of tumour cell growth, NCI panel, 48 h
786-0 = tested on: 786-0
A498 = tested on: A498
A549 = tested on: A549
ACHN = tested on: ACHN
CAKI-1 = tested on: CAKI-1
COLO 205 = tested on: COLO 205
DLD-1 = tested on: DLD-1
DMS-114 = tested on: DMS-114
DMS-273 = tested on: DMS-273
EKVX = tested on: EKVX
HCC 2998 = tested on: HCC 2998
HCT-116 = tested on: HCT-116
HCT-15 = tested on: HCT-15
HOP-18 = tested on: HOP-18
HOP-62 = tested on: HOP-62
HOP-92 = tested on: HOP-92
HT-29 = tested on: HT-29
IGROV-1 = tested on: IGROV-1
KM-20L2 = tested on: KM-20L2
LOX IMVI = tested on: LOX IMVI
LXFL 529 = tested on: LXFL 529
M14 = tested on: M14
NCI-H23 = tested on: NCI-H23
NCI-H460 = tested on: NCI-H460
OVCAR-3 = tested on: OVCAR-3
OVCAR-4 = tested on: OVCAR-4
OVCAR-8 = tested on: OVCAR-8
RXF 393 = tested on: RXF 393
SF-295 = tested on: SF-295
SF-539 = tested on: SF-539
SK-MEL-28 = tested on: SK-MEL-28
SK-MEL-5 = tested on: SK-MEL-5
SK-OV-3 = tested on: SK-OV-3
SN12C = tested on: SN12C
SNB-19 = tested on: SNB-19
SNB-75 = tested on: SNB-75
SNB-78 = tested on: SNB-78
SW-620 = tested on: SW-620
TK-10 = tested on: TK-10
U-251 = tested on: U-251
UACC-257 = tested on: UACC-257
UACC-62 = tested on: UACC-62
XF498 = tested on: XF498
CCRF-CEM = tested on: CCRF-CEM
HL-60 = tested on: HL-60
K562 = tested on: K562
KM12 = tested on: KM12
M19-MEL = tested on: M19-MEL
MOLT-4 = tested on: MOLT-4
Malme-3M = tested on: Malme-3M
NCI-H226 = tested on: NCI-H226
NCI-H522 = tested on: NCI-H522
OVCAR-5 = tested on: OVCAR-5
RPMI-8226 = tested on: RPMI-8226
SF-268 = tested on: SF-268
SK-MEL-2 = tested on: SK-MEL-2
UO-31 = tested on: UO-31
SR = tested on: SR

## COc1ccc2c3c(c(C(=O)O)oc13)C(CCC(=O)O)CC2 (centres undefined)
786-0
  GI50: > 100 µM (inactive)
A498
  GI50: > 100 µM (inactive)
A549
  GI50: > 100 µM (inactive)
ACHN
  GI50: > 100 µM (inactive)
CAKI-1
  GI50: > 100 µM (inactive)
COLO 205
  GI50: > 100 µM (inactive)
DLD-1
  GI50: > 100 µM (inactive)
DMS-114
  GI50: > 100 µM (inactive)
DMS-273
  GI50: > 100 µM (inactive)
EKVX
  GI50: > 100 µM (inactive)
HCC 2998
  GI50: > 100 µM (inactive)
HCT-116
  GI50: > 100 µM (inactive)
HCT-15
  GI50: > 100 µM
HOP-18
  GI50: > 100 µM (inactive)
HOP-62
  GI50: > 100 µM (inactive)
HOP-92
  GI50: > 100 µM (inactive)
HT-29
  GI50: > 100 µM (inactive)
IGROV-1
  GI50: > 100 µM (inactive)
KM-20L2
  GI50: > 100 µM (inactive)
LOX IMVI
  GI50: > 100 µM (inactive)
LXFL 529
  GI50: > 100 µM (inactive)
M14
  GI50: > 100 µM (inactive)
NCI-H23
  GI50: > 100 µM (inactive)
NCI-H460
  GI50: > 100 µM (inactive)
OVCAR-3
  GI50: > 100 µM (inactive)
OVCAR-4
  GI50: > 100 µM (inactive)
OVCAR-8
  GI50: > 100 µM (inactive)
RXF 393
  GI50: > 100 µM (inactive)
SF-295
  GI50: > 100 µM (inactive)
SF-539
  GI50: > 100 µM (inactive)
SK-MEL-28
  GI50: > 100 µM (inactive)
SK-MEL-5
  GI50: > 100 µM (inactive)
SK-OV-3
  GI50: > 100 µM (inactive)
SN12C
  GI50: > 100 µM (inactive)
SNB-19
  GI50: > 100 µM (inactive)
SNB-75
  GI50: > 100 µM (inactive)
SNB-78
  GI50: > 100 µM (inactive)
SW-620
  GI50: > 100 µM (inactive)
TK-10
  GI50: > 100 µM (inactive)
U-251
  GI50: > 100 µM (inactive)
UACC-257
  GI50: > 100 µM (inactive)
UACC-62
  GI50: > 100 µM (inactive)
XF498
  GI50: > 100 µM (inactive)

## Nc1ccc(N)c2c1C(=O)c1c(N)ccc(N)c1C2=O
786-0
  GI50: 36.9 µM (inactive)
A498
  GI50: 61 µM (inactive)
A549
  GI50: 62.7 µM (inactive)
ACHN
  GI50: 27.5 µM (inactive)
CAKI-1
  GI50: 49.9 µM (inactive)
CCRF-CEM
  GI50: 23.8 µM (inactive)
COLO 205
  GI50: 58.6 µM (inactive)
DLD-1
  GI50: 78.7 µM (inactive)
DMS-114
  GI50: 30.6 µM (inactive)
DMS-273
  GI50: 39 µM (inactive)
EKVX
  GI50: > 64.9 µM (inactive)
HCC 2998
  GI50: 39.6 µM (inactive)
HCT-116
  GI50: > 73.3 µM (inactive)
HCT-15
  GI50: > 66.5 µM
HL-60
  GI50: 45.6 µM (inactive)
HOP-18
  GI50: 16.3 µM (inactive)
HOP-62
  GI50: 78.2 µM (inactive)
HOP-92
  GI50: 36.6 µM (inactive)
HT-29
  GI50: > 100 µM (inactive)
IGROV-1
  GI50: > 100 µM (inactive)
K562
  GI50: > 92.9 µM (inactive)
KM-20L2
  GI50: > 100 µM (inactive)
KM12
  GI50: 60.8 µM (inactive)
LOX IMVI
  GI50: > 31.6 µM (inactive)
M14
  GI50: > 77.3 µM (inactive)
M19-MEL
  GI50: > 71.1 µM (inactive)
MOLT-4
  GI50: 25.9 µM (inactive)
Malme-3M
  GI50: > 100 µM (inactive)
NCI-H226
  GI50: 14.6 µM (inactive)
NCI-H23
  GI50: > 73.1 µM (inactive)
NCI-H460
  GI50: > 73.5 µM (inactive)
NCI-H522
  GI50: 27.5 µM (inactive)
OVCAR-3
  GI50: 25.1 µM (inactive)
OVCAR-4
  GI50: 37.1 µM (inactive)
OVCAR-5
  GI50: > 100 µM (inactive)
OVCAR-8
  GI50: 58.9 µM (inactive)
RPMI-8226
  GI50: > 57.3 µM (inactive)
RXF 393
  GI50: 35 µM (inactive)
SF-268
  GI50: 45.7 µM (inactive)
SF-295
  GI50: 70 µM (inactive)
SF-539
  GI50: 31.8 µM (inactive)
SK-MEL-28
  GI50: 98.6 µM (inactive)
SK-MEL-2
  GI50: > 84.7 µM (inactive)
SK-MEL-5
  GI50: 37.8 µM (inactive)
SK-OV-3
  GI50: > 74.5 µM (inactive)
SN12C
  GI50: > 63.5 µM (inactive)
SNB-19
  GI50: 47.8 µM (inactive)
SNB-75
  GI50: 28.4 µM (inactive)
SNB-78
  GI50: 78.5 µM (inactive)
SW-620
  GI50: 52.6 µM (inactive)
TK-10
  GI50: > 59.3 µM (inactive)
U-251
  GI50: 50 µM (inactive)
UACC-257
  GI50: > 87.1 µM (inactive)
UACC-62
  GI50: 58.3 µM (inactive)
UO-31
  GI50: 41.8 µM (inactive)
XF498
  GI50: > 54.5 µM (inactive)

## COc1ccc(OC)c(NC(=O)CCC/C(CC(=O)c2ccc(O)c(OC)c2)=N\Nc2nnc(C)n2N)c1
786-0
  GI50: > 100 µM (inactive)
A498
  GI50: > 100 µM (inactive)
A549
  GI50: > 100 µM (inactive)
ACHN
  GI50: > 100 µM (inactive)
CAKI-1
  GI50: > 100 µM (inactive)
CCRF-CEM
  GI50: > 100 µM (inactive)
COLO 205
  GI50: > 100 µM (inactive)
DLD-1
  GI50: > 100 µM (inactive)
DMS-114
  GI50: 95.7 µM (inactive)
DMS-273
  GI50: > 100 µM (inactive)
EKVX
  GI50: > 100 µM (inactive)
HCC 2998
  GI50: > 100 µM (inactive)
HCT-15
  GI50: > 100 µM
HL-60
  GI50: 90.2 µM (inactive)
HOP-18
  GI50: > 100 µM (inactive)
HOP-62
  GI50: > 100 µM (inactive)
HOP-92
  GI50: > 100 µM (inactive)
HT-29
  GI50: > 100 µM (inactive)
IGROV-1
  GI50: > 100 µM (inactive)
K562
  GI50: 32.4 µM (inactive)
KM-20L2
  GI50: > 100 µM (inactive)
KM12
  GI50: > 100 µM (inactive)
LOX IMVI
  GI50: > 100 µM (inactive)
LXFL 529
  GI50: > 100 µM (inactive)
M14
  GI50: > 100 µM (inactive)
M19-MEL
  GI50: > 100 µM (inactive)
MOLT-4
  GI50: > 100 µM (inactive)
Malme-3M
  GI50: > 100 µM (inactive)
NCI-H226
  GI50: > 100 µM (inactive)
NCI-H23
  GI50: > 100 µM (inactive)
NCI-H460
  GI50: > 100 µM (inactive)
NCI-H522
  GI50: > 100 µM (inactive)
OVCAR-3
  GI50: > 100 µM (inactive)
OVCAR-4
  GI50: > 100 µM (inactive)
OVCAR-5
  GI50: > 100 µM (inactive)
OVCAR-8
  GI50: > 100 µM (inactive)
RPMI-8226
  GI50: > 100 µM (inactive)
SF-268
  GI50: > 100 µM (inactive)
SF-295
  GI50: > 100 µM (inactive)
SF-539
  GI50: > 100 µM (inactive)
SK-MEL-28
  GI50: > 100 µM (inactive)
SK-MEL-2
  GI50: > 100 µM (inactive)
SK-MEL-5
  GI50: > 100 µM (inactive)
SK-OV-3
  GI50: > 100 µM (inactive)
SN12C
  GI50: > 100 µM (inactive)
SNB-19
  GI50: > 100 µM (inactive)
SNB-75
  GI50: 37.9 µM (inactive)
SR
  GI50: > 100 µM (inactive)
SW-620
  GI50: > 100 µM (inactive)
TK-10
  GI50: > 100 µM (inactive)
U-251
  GI50: > 100 µM (inactive)
UACC-257
  GI50: > 100 µM (inactive)
UACC-62
  GI50: > 100 µM (inactive)
UO-31
  GI50: > 100 µM (inactive)
XF498
  GI50: > 100 µM (inactive)

## CC(=O)Oc1cc(OC(C)=O)c2c(=O)c3ccccc3[nH]c2c1
A549
  GI50: 61.9 µM (inactive)
ACHN
  GI50: 24.6 µM (inactive)
DLD-1
  GI50: 21.3 µM (inactive)
DMS-114
  GI50: 24.8 µM (inactive)
DMS-273
  GI50: 45.4 µM (inactive)
HCT-116
  GI50: 56.8 µM (inactive)
HCT-15
  GI50: 49.3 µM
HOP-18
  GI50: 10.5 µM (inactive)
HT-29
  GI50: 49.2 µM (inactive)
IGROV-1
  GI50: 19.1 µM (inactive)
KM12
  GI50: 37.8 µM (inactive)
LOX IMVI
  GI50: 39.4 µM (inactive)
LXFL 529
  GI50: 26.9 µM (inactive)
M19-MEL
  GI50: 31.9 µM (inactive)
MOLT-4
  GI50: 27.5 µM (inactive)
Malme-3M
  GI50: 24.4 µM (inactive)
NCI-H226
  GI50: 27.5 µM (inactive)
NCI-H23
  GI50: 27.2 µM (inactive)
NCI-H460
  GI50: 33.3 µM (inactive)
NCI-H522
  GI50: 24.8 µM (inactive)
OVCAR-3
  GI50: 16.2 µM (inactive)
OVCAR-4
  GI50: 65.9 µM (inactive)
OVCAR-8
  GI50: 32.9 µM (inactive)
RXF 393
  GI50: 58.3 µM (inactive)
SF-268
  GI50: 50.5 µM (inactive)
SF-295
  GI50: 32.7 µM (inactive)
SF-539
  GI50: 20.8 µM (inactive)
SK-MEL-28
  GI50: 54.6 µM (inactive)
SK-MEL-2
  GI50: 49.5 µM (inactive)
SK-MEL-5
  GI50: 18.9 µM (inactive)
SK-OV-3
  GI50: 13.9 µM (inactive)
SN12C
  GI50: 36.5 µM (inactive)
SNB-19
  GI50: 70.1 µM (inactive)
SNB-75
  GI50: 35.2 µM (inactive)
SNB-78
  GI50: 57 µM (inactive)
TK-10
  GI50: 38.5 µM (inactive)
UACC-257
  GI50: 28.1 µM (inactive)
UACC-62
  GI50: 62.1 µM (inactive)
UO-31
  GI50: 12.5 µM (inactive)
XF498
  GI50: 11.2 µM (inactive)
